Measurements: PMC6736360, “P-Glycoprotein–Mediated Efflux Reduces the In Vivo Efficacy of a Therapeutic Targeting the Gastrointestinal Parasite Cryptosporidium” (The Journal of Infectious Diseases, 2019)
Where two headings read alike, the source gives them in different places.

Test: Mouse gastrointestinal tissue pharmacokinetics
Assay type: in vivo, mice
Conditions: for AUC(0-t) / Cmax / Tmax: mouse, po
Method: At multiple time points following BKI1318 administration, mice were euthanized, and the GI tract was separated into segments corresponding to the duodenum, jejunum, ileum, and cecum/colon. […] At 0.5, 1, 2, 4, 8, and 12 hours, three mice in each group were sacrificed by cervical dislocation, and the duodenum, jejunum, ileum, and cecum/ascending colon were immediately collected. Each section of the GI tract was flushed with Dulbecco's phosphate-buffered saline, weighed, and placed in storage at -80°C. On the day of homogenization, 0.9% NaCl was added to each sample to achieve 200 mg/mL tissue concentration. Samples were homogenized using a handheld motorized homogenizer (Fisher Scientific, Waltham, MA) on ice and stored at -20°C until extraction and analysis. To report tissue concentrations, 1 gram of tissue was estimated to be 1 mL of volume.

Question: For `CCOc1ccc2cc(-c3nn(CC4CCNCC4)c4ncnc(N)c34)ccc2n1` [BKI1318], which “Effect of elacridar on levels in the cecum/colon” value (mice, cecum/colon tissue) is on record?
Answer: did not significantly affect

Question: And the “Increase of duodenum exposure when elacridar administered before” value (mice, duodenum tissue, P < .05)?
Answer: approximately 2 fold

Question: What about the “Increase of ileum exposure when elacridar administered before” value (mice, ileum tissue, P < .05) of the same compound?
Answer: approximately 3 fold

Question: And the “Increase of jejunum exposure when elacridar administered before” value (mice, jejunum tissue, P < .05)?
Answer: approximately 2 fold

Question: What about the AUC(0-t) (cecum/colon, 30 mg/kg, Cecum/Colon, BKI 1318 alone, read-out: AUC0-12) of the same compound?
Answer: 109 µM·h

Question: And the Cmax (cecum/colon, 30 mg/kg, Cecum/Colon, BKI 1318 alone, read-out: Observed Cmax)?
Answer: 14.4 µM

Question: And the Tmax (cecum/colon, 30 mg/kg, Cecum/Colon, BKI 1318 alone, read-out: Tmax)?
Answer: 9.3 h

Question: What about the AUC(0-t) (cecum/colon, Cecum/Colon, with elacridar, read-out: AUC0-12 w/ Elacridar) of the same compound?
Answer: 65.5 ± 4 µM·h

Question: And the Cmax (cecum/colon, Cecum/Colon, with elacridar, read-out: Cmax w/ Elacridar)?
Answer: 8.2 ± 0.3 µM

Question: And the Tmax (cecum/colon, Cecum/Colon, with elacridar, read-out: Tmax w/ Elacridar)?
Answer: 7.3 ± 4.1 h

Question: And the AUC(0-t) (duodenum, Duodenum, BKI 1318 alone, read-out: AUC0-12)?
Answer: 235 µM·h

Question: And the Cmax (duodenum, Duodenum, BKI 1318 alone, read-out: Observed Cmax)?
Answer: 77.2 µM

Question: What about the Tmax (duodenum, Duodenum, BKI 1318 alone, read-out: Tmax) of the same compound?
Answer: 0.5 h

Question: What about the AUC(0-t) (duodenum, Duodenum, with elacridar, P≤0.001, read-out: AUC0-12 w/ Elacridar) of the same compound?
Answer: 537 µM·h

Question: And the Cmax (duodenum, Duodenum, with elacridar, read-out: Cmax w/ Elacridar)?
Answer: 110 µM

Question: And the Tmax (duodenum, Duodenum, with elacridar, read-out: Tmax w/ Elacridar)?
Answer: 0.7 ± 0.2 h

Question: What about the AUC(0-t) (ileum, 30 mg/kg, Ileum, BKI 1318 alone, read-out: AUC0-12) of the same compound?
Answer: 336 µM·h

Question: And the Cmax (ileum, Ileum, BKI 1318 alone, read-out: Observed Cmax)?
Answer: 79.8 µM

Question: What about the Tmax (ileum, Ileum, BKI 1318 alone, read-out: Tmax) of the same compound?
Answer: 4.3 h

Question: What about the AUC(0-t) (ileum, Ileum, with elacridar, P≤0.05, read-out: AUC0-12 w/ Elacridar) of the same compound?
Answer: 1150 µM·h

Question: What about the Cmax (ileum, Ileum, with elacridar, read-out: Cmax w/ Elacridar) of the same compound?
Answer: 177 µM

Question: And the Tmax (ileum, Ileum, with elacridar, read-out: Tmax w/ Elacridar)?
Answer: 2 h

Question: What about the AUC(0-t) (jejunum, Jejunum, BKI 1318 alone, read-out: AUC0-12) of the same compound?
Answer: 279 µM·h

Question: And the Cmax (jejunum, Jejunum, BKI 1318 alone, read-out: Observed Cmax)?
Answer: 108 µM

Question: And the Tmax (jejunum, Jejunum, BKI 1318 alone, read-out: Tmax)?
Answer: 0.8 h

Question: What about the AUC(0-t) (jejunum, Jejunum, with elacridar, P≤0.05, read-out: AUC0-12 w/ Elacridar) of the same compound?
Answer: 558 µM·h

Question: And the Cmax (jejunum, Jejunum, with elacridar, read-out: Cmax w/ Elacridar)?
Answer: 98.1 µM

Question: And the Tmax (jejunum, Jejunum, with elacridar, read-out: Tmax w/ Elacridar)?
Answer: 1.8 ± 1.5 h
